# Assay results taken from US20250108048A1, “STING AGONIST COMPOUNDS AND CONJUGATES” (SUTRO BIOPHARMA, INC., priority 2023, published 2025).
# pEC50, pKd: −log10 of the molar value.
# Experiments:
# hSTING-HAQ haplotype = target: T1, hSTING-HAQ haplotype (Homo sapiens, UniProt Q86WV6, G230A/H232R/R293Q/R71H); assay: THP-1-Dual reporter assay (endogenous hSTING-HAQ); format: cell-based; conditions: THP-1-Dual cells (hSTING-HAQ), 24 hours
# T1 construct: host or cells: THP-1-Dual
# NCI-H292 cells = assay: Immunogenic cell death markers (HMGB1 release, surface calreticulin); format: cell-based, human; conditions: 48 hours
# Experimental: Immunogenic cell death elicited by the TROP2 ADC, iSAC, and exatecan were measured by cell surface translocate of calreticulin and release of HMGB1 in the cell culture supernatant. Briefly, TROP2 positive cell line NCI-H292 were seeded into a 96-well flat bottom plate 4 hours prior to the initialization of the assay. Test articles were formulated at a 2× starting concentration in cell culture medium, and samples were serial diluted (1:3) under sterile conditions and added onto the cells in duplicates. After incubation at 37° C. in a CO2 incubator for 48 hours, the cell supernatant was collected for measuring HMGB1 and the adherent cells were collected for calreticulin expression on the cell surface.
# HMGB1 released in the supernatant was assessed via sandwich ELISA using mouse anti-human HMGB1 clone 2F6 (Sigma-Aldrich) as the capture, polyclonal rabbit anti-human HMGB1 (Abcam) as secondary, and polyclonal goat anti-rabbit IgG HRP as the detection antibody. The HMGB1 concentrations in the cell culture medium were calculated based a standard curve built on commercially available recombinant human HMGB1 (R&D Systems).
# NCI-H292 cells were detached using Accutase (Innovative Cell Technologies) and viability was accessed using a 1:500 dilution of Zombie NIR viability dye. […] Surface calreticulin measures on the live cells were gathered using an Attune NXT Flow Cytometer (ThermoFisher Scientific) to obtain median fluorescence intensity values. All data were fitted with non-linear regression analysis, using log(agonist) vs. response, variable slope, 4 parameter fit equation using GraphPad Prism.
# hSTING WT = hSTING WT (Homo sapiens, UniProt Q86WV6); assay: Surface plasmon resonance, hSTING WT; format: binding; conditions: read-out: hSTING WT SPR (Kd)
# hSTING WT, sequence (Q86WV6 whole entry H232R): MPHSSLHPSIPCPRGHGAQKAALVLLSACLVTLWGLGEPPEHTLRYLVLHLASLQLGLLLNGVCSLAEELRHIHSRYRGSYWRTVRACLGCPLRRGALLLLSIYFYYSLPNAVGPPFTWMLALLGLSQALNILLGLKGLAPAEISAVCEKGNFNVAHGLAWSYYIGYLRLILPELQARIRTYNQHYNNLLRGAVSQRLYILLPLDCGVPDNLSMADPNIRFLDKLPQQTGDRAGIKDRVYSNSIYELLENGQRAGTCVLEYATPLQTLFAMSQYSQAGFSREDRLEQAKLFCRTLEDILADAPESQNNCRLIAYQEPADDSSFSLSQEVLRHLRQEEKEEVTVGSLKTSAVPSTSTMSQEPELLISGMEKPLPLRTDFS
# T1 sequence (Q86WV6 whole entry R71H/G230A/H232R/R293Q): as the sequence (Q86WV6 whole entry H232R) above, with R71H, G230A, R293Q counted along it
compound,measurement,setting,value
"CCn1nc(C)cc1C(=O)Nc1nc2cc(C(N)=O)cc(OC)c2n1C/C=C/Cn1c(NC(=O)c2cc(C)nn2CC)nc2cc(C(N)=O)cc(OCCCN3CCC(c4nnc5n4CCNC5)CC3)c21 [Compound 4, 1-[(E)-4-[5-carbamoyl-2-[(2-ethyl-5-methyl-pyrazole-3-carbonyl)amino]-7-[3-[4-(5,6,7,8-tetrahydro-[1,2,4]triazolo[4,3-a]pyrazin-3-yl)-1-piperidyl]propoxy]benzimidazol-1-yl]but-2-enyl]-2-[(2-ethyl-5-methyl-pyrazole-3-carbonyl)amino]-7-methoxy-benzimidazole-5-carboxamide; 2,2,2-trifluoroacetic acid]",EC50,hSTING-HAQ haplotype,50 to 150 nM
same,HMGB-1 Release Span,NCI-H292 cells,11 ng/mL
same,pEC50,"NCI-H292 cells; Homo sapiens, sandwich ELISA, read-out: HMGB-1 Release EC50",8.13
same,pKd,hSTING WT,≥ 7.70
